{
  "source": "patent EP0309421A2",
  "about": "“O-alkanoyl derivatives of 3-amino-2-hydroxypropanesulfonic acid having anticonvulsivant activity and pharmaceutical compositions containing same for the therapeutical treatment of epilepsy” (SIGMA TAU Industrie Farmaceutiche Riunite S.p.A., priority 1987, dated 1989)",
  "key": {"[1]": {"test": "Stability of the solid product versus pH (deacylation)", "format": "physicochemical", "conditions": "above it deacylation of the compound takes place", "text": "After it had been cooled to room temperature the mixtured was filtered and the filtrate added dropwise to an Erlenmeyer flask containing about 700 milliliters of ethyl ether. A white precipitate formed which was again dissolved in methanol, filtered and re-precipitated with ether. Upon drying 7.3 g of a white, hygroscopic solid product, stable at pH <6.3 were obtained; above this […] deacylation of the compound takes place. • Elementary analysis: [formula] • NMR corresponding"}, "[2]": {"system": "bicuculline-induced convulsions", "test": "Anticonvulsivant test, bicuculline-induced convulsions", "format": "in vivo, male albino swiss (Charles River) mice", "method": "(§1) Anticonvulsivant tests were carried out using cardiazol, strychnine and bicuculline at doses of 100 mg/10 ml/kg i.p., 0.73 mg/10 ml/kg s.c. and 2.38 mg/10 ml/kg s.c., respectively, chosen in such a way as to provoke death in 50% of the control animals.\n(§2) The tests were carried out in male albino swiss (Charles River) mice weighing 22-24 g. The compound under examination, dissolved in water, was i.p. administered 30 minutes before the convulsivant agent administration.\n(§3) As reference substance, 3-APS (200-400-800 mg/10 ml/kg i.p.) was used."}, "[3]": {"system": "FeCl3-induced epilepsy", "test": "Antiepileptic activity test (FeCl3-induced epilepsy model)", "format": "in vivo, Male albino Wistar rats", "conditions": "500, 250 and 125 mg/kg i.v. ninety minutes following FeCl3 injection; Mann-Whitney's \"U\" test, P<0.05", "method": "Male albino Wistar rats weighing 250-300 g were used. The animals, anaesthetized with Nembutal Na (30 mg/kg e.p.), were stereotactically injected in their left ventral hippocampus one microliter of 0.55 M FeC13 solution (AP =-3.2; L=5.0; H=5.5 Pellegrino and Cushman, 1971). Ten minutes following injection, recording electrodes were implanted: in both ventral hippocampi, two millimeters below the FeC13 injection site (bipolars), bilaterally on the frontoparietal cortex (monopolars). […] The epilepsy degree was assessed by calculating for each animal the number and duration in seconds of the seizures at 5-minute intervals during the whole recording span both in the hippocampus where the injection had been performed and in the contralateral cortex. Moreover, an \"index of epileptization\" was calculated as the mean product of seizure number times the duration of the seizures in each time interval. […]\nThe results thus obtained show the antiepileptic activity of the compound assessed by examining the whole phenomenon as it evolves in time via the measure (carried out with the trapezoidal rule) of the area under the curve wherein the average number of seizures and their duration is plotted versus time."}, "[4]": {"system": "cardiazol-induced convulsions", "test": "Anticonvulsivant test, cardiazol-induced convulsions", "format": "in vivo, male albino swiss (Charles River) mice", "method": "as §1, §2, §3"}, "[5]": {"system": "auricular electroshock", "test": "Auricular electroshock (maximal electroshock)", "format": "in vivo, Male albino Swiss mice", "conditions": "14 animals, control 6/14", "method": "Male albino Swiss mice weighing 22-24 g were used in this test. The electroshock conditions were the following: • shock duration: 3 seconds; frequence: 100; pulse amplitude: 0.6 milliseconds, current intensity: 40 milliamperes. • 400 and 800 mg/10 ml/kg of the compound under examination were administered via the intraperitoneal route 30 minutes before the electroshock.\nThe tests results which illustrate the number of animals preserved from death provoked by maximal electroshock are shown in the following Table 3."}, "[6]": {"system": "male and female Sprague Dawley rats", "test": "Toxicity test, oral administration for 15 consecutive days", "format": "in vivo", "conditions": "150-450-1350 mg/10 ml/kg for 15 consecutive days", "method": "The toxicity tests were carried out on male and female Sprague Dawley rats which were orally administered ST549 at the doses of 150-450-1350 mg/10 ml/kg for 15 consecutive days; the control animals were administered the same volume of vehicle as the test animals."}, "[7]": {"system": "strychnine-induced convulsions", "test": "Anticonvulsivant test, strychnine-induced convulsions", "format": "in vivo, male albino swiss (Charles River) mice", "method": "as §1, §2, §3"}, "[8]": {"system": "male albino swiss mice", "test": "Tolerability test, intravenous", "format": "in vivo", "conditions": "1.4 g/kg intravenously, in sterile saline at neutral pH", "method": "The tolerability test was carried out on male albino swiss mice weighing 22-24 g."}, "[9]": {"conditions": "Bicuculline, ST 549 i.p., equimolar to 400 mg/kg 3APS"}, "[10]": {"conditions": "Cardiazol, ST 549 i.p., equimolar to 400 mg/kg 3APS"}, "[11]": {"conditions": "lower dose (equimolar to 200 mg/10 ml/kg of 3-APS)"}, "[12]": {"conditions": "Strychnine, ST 549 i.p., equimolar to 400 mg/kg 3APS"}, "[13]": {"conditions": "Bicuculline, 3-APS 800 mg/kg i.p."}, "[14]": {"conditions": "doses of 200,400 and 800 mg/10 ml/kg i.p."}, "[15]": {"conditions": "Cardiazol, 3-APS 400 mg/kg i.p."}, "[16]": {"conditions": "Cardiazol, 3-APS 800 mg/kg i.p."}, "[17]": {"conditions": "Strychnine, 3-APS 400 mg/kg i.p."}, "[18]": {"conditions": "Strychnine, 3-APS 800 mg/kg i.p."}},
  "note": "Marks after values point to notes of the source that are not given here.",
  "data": [
    {"smiles": "CCCC(=O)OC(CN)CS(=O)(=O)O.Cl", "note": "(stereo not shown) [ST 477, 3-amino-2-butanoyloxypropanesulfonic acid hydrochloride]", "values": [
      {"measurement": "stable at pH", "setting": "[1]", "value": "< 6.3"}
    ]},
    {"smiles": "CC(=O)OC(CN)CS(=O)(=O)O", "note": "(stereo not shown) [ST 549, 3-amino-2-acetyloxy propanesulfonic acid]", "values": [
      {"measurement": "% Death rate", "setting": "[2]; Bicuculline, ST 549 i.p., equimolar to 200 mg/kg 3APS", "value": 60, "unit": "%"},
      {"measurement": "% Conv.", "setting": "[2]; Bicuculline, ST 549 i.p., equimolar to 200 mg/kg 3APS, 10 animals", "value": 70, "unit": "%"},
      {"measurement": "% Conv.", "setting": "[2]; [9]", "value": 60, "unit": "%"},
      {"measurement": "% Death rate", "setting": "[2]; [9]", "value": 60, "unit": "%"},
      {"measurement": "decrease of bicuculline-induced death rate", "setting": "[2]; doses equimolar to 400 and 200 mg/10 ml/kg i.p. of 3-APS", "value": 30, "unit": "%"},
      {"measurement": "animals preserved from convulsions (bicuculline)", "setting": "[2]; doses equimolar to 400 and 200 mg/10 ml/kg i.p. of 3-APS, printed as \"the same percentage\"", "value": 30, "unit": "%"},
      {"measurement": "area under the curve of average number of seizures and their duration versus time, compared with controls", "setting": "[3]", "value": "statistically significant difference"},
      {"measurement": "% Conv.", "setting": "[4]; Cardiazol, ST 549 i.p., dose equimolar to 200 mg/kg 3APS, 10 animals", "value": 100, "unit": "%"},
      {"measurement": "% Death rate", "setting": "[4]; Cardiazol, ST 549 i.p., equimolar to 200 mg/kg 3APS", "value": 50, "unit": "%"},
      {"measurement": "% Conv.", "setting": "[4]; [10]", "value": 90, "unit": "%"},
      {"measurement": "% Death rate", "setting": "[4]; [10]", "value": 0, "unit": "%"},
      {"measurement": "animals preserved from cardiazol-induced death", "setting": "[4]; dose equimolar to 400 mg/10 ml/kg i.p. of 3-APS", "value": 100, "unit": "%"},
      {"measurement": "effect on the relevant parameters (cardiazol)", "setting": "[4]; [11]", "value": "did not affect the relevant parameters"},
      {"measurement": "death rate", "setting": "[5]; 400 mg/kg i.p. 30 minutes before the electroshock", "value": "3/14"},
      {"measurement": "death rate", "setting": "[5]; 800 mg/kg i.p. 30 minutes before the electroshock", "value": "3/14"},
      {"measurement": "general health or behaviour of the animals", "setting": "[6]", "value": "did not affect"},
      {"measurement": "Autopsy, main organs", "setting": "[6]; at the end of the test", "value": "did not reveal either alterations or lesions to the main organs"},
      {"measurement": "blood and urine parameters", "setting": "[6]; with respect to the controls", "value": "unchanged"},
      {"measurement": "% Death rate", "setting": "[7]; Strychnine, ST 549 i.p., equimolar to 200 mg/kg 3APS", "value": 90, "unit": "%"},
      {"measurement": "% Conv.", "setting": "[7]; Strychnine, ST 549 i.p., equimolar to 200 mg/kg 3APS, 10 animals", "value": 100, "unit": "%"},
      {"measurement": "% Conv.", "setting": "[7]; [12]", "value": 100, "unit": "%"},
      {"measurement": "% Death rate", "setting": "[7]; [12]", "value": 90, "unit": "%"},
      {"measurement": "latency time of strychnine-induced death", "setting": "[7]; [11]", "value": "significantly increased"},
      {"measurement": "latency time of strychnine-induced first convulsion", "setting": "[7]; [11]", "value": "significantly increased"},
      {"measurement": "tolerability", "setting": "[8]", "value": "well tolerated"}
    ]},
    {"smiles": "NCCCS(=O)(=O)O", "note": "[3-APS, 3-aminopropanesulfonic acid]", "values": [
      {"measurement": "latency time of bicuculline-induced death", "setting": "[2]; 400 mg/10 ml/kg i.p.", "value": "significantly increased"},
      {"measurement": "latency time of the bicuculline-induced first convulsion", "setting": "[2]; 800 mg/kg i.p.", "value": "significantly increased"},
      {"measurement": "% Conv.", "setting": "[2]; Bicuculline 2.38 mg/10 ml/kg s.c., 3-APS 200 mg/kg i.p. 30 min before, 10 animals", "value": 100, "unit": "%"},
      {"measurement": "% Death rate", "setting": "[2]; Bicuculline, 3-APS 200 mg/kg i.p.", "value": 100, "unit": "%"},
      {"measurement": "% Death rate", "setting": "[2]; Bicuculline, 3-APS 400 mg/kg i.p.", "value": 75, "unit": "%"},
      {"measurement": "% Conv.", "setting": "[2]; Bicuculline, 3-APS 400 mg/kg i.p., 8 animals per group", "value": "100* %"},
      {"measurement": "% Conv.", "setting": "[2]; [13]", "value": 70, "unit": "%"},
      {"measurement": "% Death rate", "setting": "[2]; [13]", "value": 40, "unit": "%"},
      {"measurement": "preservation from bicuculline-induced death", "setting": "[2]; [14]", "value": "did not preserve animals"},
      {"measurement": "% Conv.", "setting": "[4]; Cardiazol 100 mg/10 ml/kg i.p., 3-APS 200 mg/kg i.p. 30 min before, 10 animals", "value": 100, "unit": "%"},
      {"measurement": "% Death rate", "setting": "[4]; Cardiazol, 3-APS 200 mg/kg i.p.", "value": 50, "unit": "%"},
      {"measurement": "% Conv.", "setting": "[4]; [15]", "value": 100, "unit": "%"},
      {"measurement": "% Death rate", "setting": "[4]; [15]", "value": 90, "unit": "%"},
      {"measurement": "% Conv.", "setting": "[4]; [16]", "value": 100, "unit": "%"},
      {"measurement": "% Death rate", "setting": "[4]; [16]", "value": 60, "unit": "%"},
      {"measurement": "preservation from cardiazole-induced death", "setting": "[4]; [14]", "value": "did not preserve animals"},
      {"measurement": "% Conv.", "setting": "[7]; Strychnine 0.73 mg/10 ml/kg s.c., 3-APS 200 mg/kg i.p. 30 min before, 10 animals", "value": 100, "unit": "%"},
      {"measurement": "% Death rate", "setting": "[7]; Strychnine, 3-APS 200 mg/kg i.p.", "value": 90, "unit": "%"},
      {"measurement": "% Conv.", "setting": "[7]; [17]", "value": 100, "unit": "%"},
      {"measurement": "% Death rate", "setting": "[7]; [17]", "value": 100, "unit": "%"},
      {"measurement": "% Conv.", "setting": "[7]; [18]", "value": 100, "unit": "%"},
      {"measurement": "% Death rate", "setting": "[7]; [18]", "value": 90, "unit": "%"},
      {"measurement": "preservation from strychnine-induced death", "setting": "[7]; [14]", "value": "did not preserve animals"}
    ]}
  ]
}
